The text below walks through data of patent US4923892A, “Tricyclic aromatic compounds” (Burroughs Wellcome Co., priority 1985, dated 1990).

In data set [1] the test system is Compound 48/80 Induced Anaphylactoid Reaction. As to the kind of experiment: Anaphylactoid activity: inhibition of compound 48/80 induced anaphylactoid reaction in rats. It is filed as in vivo, Wister rats. The note with it: Rattus norvegicus, po, dosed 2 hours before compound 48/80 (2 mg/kg i.v.), propranolol 5 mg/kg i.p., at least 50 animals, read-out: ED50, dose providing 50% protection against death induced by compound 48/80. The protocol:
Non-fasted, Wister rats (180-300 g) were dosed with the test compound (i.p. or p.o.) 2 hours before compound 48/80 challenge. One hour prior to challenge, 5 mg/kg i.p. of propranolol was administered. The anaphylactoid inducing agent, compound 48/80 which is well known in the art of pharmacology, was given intravenously at 2 mg/kg and the animals were monitored for symptoms of respiratory distress.
Data were analyzed by Probit determinations. The response was quantitated by determining the dose of test compound which protected 50% of the animals from death at a given time point.
Agents which block the effects of compound 48/80 are commonly classified as inhibitors of anaphylactic mediators or inhibitors of the release of anaphylic mediators.

Another data set concerns histamine. As to the kind of experiment: In vivo antihistaminic activity: protection of guinea pigs against histamine aerosol challenge. Also noted: species or system Guinea pigs (Hartley, male).
Another data set in a line: LD50 in rats. As to conditions: rat, in vivo.

For the compound `CN(C)CCC=C1c2ccccc2COc2ccccc21` [Doxepin, 11-(3-(dimethylamino)propylidene)-6,11-dihydrodibenz[b,e]oxepin], the ED50 in data set [1] came out at 0.15 mg/kg.

In the case of `CN(C)CC/C=C1/c2ccccc2COc2ccc(C(=O)O)cc21` [Compound 1, (Z)-11-(3-(Dimethylamino)propylidene)-6,11-dihydrodibenz[b,e]oxepin-2-carboxylic acid], the ED50 with histamine (Cavia porcellus, po, 4 hr post dosing, guinea pigs, 0.25% histamine aerosol, at least 40 animals) came to 0.15 mg/kg; in data set [1], 1.1 mg/kg. In addition, the “antihistaminic activity in vivo” value in the data set with histamine (in words) is “extremely good antihistaminic activity in vivo”. Further, the “duration of antihistaminic activity” value in the data set on histamine (in words) is “very long durations of antihistamic activity”. Further, the LD50 in the data set “LD50 in rats” (ip) is ~210 mg/kg; in “LD50 in rats” (po), > 500 mg/kg.

For `Cc1ccc(/C(=C\CN2CCCC2)c2ccccn2)cc1` [Triprolidine], in data set [1], the ED50 is > 30 mg/kg.
